Source: PubChem BioAssay AID256 (DTP/NCI, 2004)
Values joined by “and” are separate entries in the source; they are usually repeats but may differ in a detail not shown here. Equal entries are not always repeated. Inconclusive results and toxic doses are left out. How the source made its calls: active means survival T/C of 150% or more; inactive means T/C below 125% in these data.

System: CD2F1 mice, L1210 leukemia ip, survival T/C
Experiment: NCI In Vivo Anticancer Drug Screen. Data for tumor model L1210 Leukemia (intraperitoneal) in CD2F1 (CDF1) mice
Conditions: higher = longer survival
Procedure, shortened: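 Implant tumor; dose compound or vehicle; measure endpoint in both groups; report treated divided by control.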

[1] = endpoint: mean survival time, dose: 50.0 mg/kg/injection, schedule: Q04DX003 (ip), vehicle: water
[2] = endpoint: mean survival time, dose: 100.0 mg/kg/injection, schedule: Q01DX009 (ip), vehicle: saline sonified
[3] = endpoint: mean survival time, dose: 100.0 mg/kg/injection, schedule: Q04DX003 (ip), vehicle: saline with Tween-80
[4] = endpoint: mean survival time, dose: 200.0 mg/kg/injection, schedule: Q01DX009 (ip), vehicle: saline sonified
[5] = endpoint: mean survival time, dose: 200.0 mg/kg/injection, schedule: Q04DX003 (ip), vehicle: saline with Tween-80
[6] = endpoint: mean survival time, dose: 400.0 mg/kg/injection, schedule: Q04DX003 (ip), vehicle: saline with Tween-80
[7] = endpoint: mean survival time, dose: 100.0 mg/kg/injection, schedule: Q01DX001 (ip), vehicle: saline with Tween-80
[8] = endpoint: mean survival time, dose: 100.0 mg/kg/injection, schedule: Q01DX009 (ip), vehicle: saline
[9] = endpoint: mean survival time, dose: 200.0 mg/kg/injection, schedule: Q01DX009 (ip), vehicle: saline
[10] = endpoint: mean survival time, dose: 400.0 mg/kg/injection, schedule: Q01DX009 (ip), vehicle: saline
[11] = endpoint: mean survival time, dose: 50.0 mg/kg/injection, schedule: Q04DX003 (ip), vehicle: saline with Tween-80

Measured: T/C

O=C(O)CC(=O)O.[NH-]CCC1CCCC[N-]1.[Pt+2] (stereo unspecified)
inactive: endpoint: mean survival time, dose: 3.13 mg/kg/injection, schedule: Q04DX003 (ip), vehicle: distilled water + Tween-80 111 % of control | endpoint: mean survival time, dose: 6.25 mg/kg/injection, schedule: Q04DX003 (ip), vehicle: distilled water + Tween-80 108 % of control | endpoint: mean survival time, dose: 12.5 mg/kg/injection, schedule: Q04DX003 (ip), vehicle: distilled water + Tween-80 114 % of control | endpoint: mean survival time, dose: 25.0 mg/kg/injection, schedule: Q04DX003 (ip), vehicle: distilled water + Tween-80 114 % of control | endpoint: mean survival time, dose: 25.0 mg/kg/injection, schedule: Q04DX003 (ip), vehicle: water 108 % of control | endpoint: mean survival time, dose: 50.0 mg/kg/injection, schedule: Q04DX003 (ip), vehicle: distilled water + Tween-80 113 % of control | [1] 120 % of control

CC1(C)C2CC=C(CCN=[N+]=[N-])C1C2 (stereo unspecified)
inactive: endpoint: mean survival time, dose: 50.0 mg/kg/injection, schedule: Q01DX009 (ip), vehicle: saline sonified 97 % of control | [2] 97 % of control | [3] 105 % of control | [4] 95 % of control | [5] 97 % of control

Nc1c(C(=O)O)cnn1CCO
inactive: [1] 94 % of control | endpoint: mean survival time, dose: 100.0 mg/kg/injection, schedule: Q04DX003 (ip), vehicle: water 100 % of control | endpoint: mean survival time, dose: 200.0 mg/kg/injection, schedule: Q04DX003 (ip), vehicle: water 100 % of control | endpoint: mean survival time, dose: 400.0 mg/kg/injection, schedule: Q04DX003 (ip), vehicle: water 97 % of control and 100 % of control | endpoint: mean survival time, dose: 700.0 mg/kg/injection, schedule: Q04DX003 (ip), vehicle: water 89 % of control

CCOc1ccccc1C=C(C#N)C#N
inactive: endpoint: mean survival time, dose: 25.0 mg/kg/injection, schedule: Q04DX002 (ip), vehicle: saline with Tween-80 96 % of control | endpoint: mean survival time, dose: 50.0 mg/kg/injection, schedule: Q04DX002 (ip), vehicle: saline with Tween-80 96 % of control | endpoint: mean survival time, dose: 100.0 mg/kg/injection, schedule: Q04DX002 (ip), vehicle: saline with Tween-80 93 % of control

C1CCC2[N-]CCCC2C1.C1CCC2[N-]CCCC2C1.[Cl][Pt+2][Cl] (stereo unspecified)
inactive: endpoint: median survival time, dose: 3.12 mg/kg/injection, schedule: Q04DX003 (ip), vehicle: saline 102 % of control | endpoint: median survival time, dose: 6.25 mg/kg/injection, schedule: Q04DX003 (ip), vehicle: saline 98 % of control | endpoint: median survival time, dose: 12.5 mg/kg/injection, schedule: Q04DX003 (ip), vehicle: saline 101 % of control | endpoint: median survival time, dose: 25.0 mg/kg/injection, schedule: Q04DX003 (ip), vehicle: saline 105 % of control | endpoint: median survival time, dose: 50.0 mg/kg/injection, schedule: Q04DX003 (ip), vehicle: saline 103 % of control | endpoint: median survival time, dose: 100.0 mg/kg/injection, schedule: Q04DX003 (ip), vehicle: saline 94 % of control | endpoint: median survival time, dose: 200.0 mg/kg/injection, schedule: Q04DX003 (ip), vehicle: saline 100 % of control

NC(=Nc1ccc(Cl)cc1)/N=C(/N)N1CCN(/C(N)=N/C(N)=Nc2ccc(Cl)cc2)CC1
inactive: endpoint: mean survival time, dose: 50.0 mg/kg/injection, schedule: Q01DX009 (ip), vehicle: saline with Tween-80 104 % of control | [3] 98 % of control | [5] 98 % of control

CCOC(=O)NC1CCC1NC(=O)OCC (stereo unspecified)
inactive: [3] 95 % of control | [5] 106 % of control | [6] 107 % of control

CC(=O)Nc1c(C)cccc1[N+](=O)[O-]
inactive: endpoint: mean survival time, dose: 25.0 mg/kg/injection, schedule: Q01DX001 (ip), vehicle: saline with Tween-80 101 % of control | endpoint: mean survival time, dose: 50.0 mg/kg/injection, schedule: Q01DX001 (ip), vehicle: saline with Tween-80 97 % of control | [7] 97 % of control

CCN=C(NCC)S(=O)O
inactive: [8] 90 % of control | [9] 97 % of control | [10] 103 % of control

c1ccc(P(CCNCCP(c2ccccc2)c2ccccc2)c2ccccc2)cc1
inactive: endpoint: median survival time, dose: 25.0 mg/kg/injection, schedule: Q01DX009 (ip), vehicle: saline with Tween-80 101 % of control | endpoint: median survival time, dose: 50.0 mg/kg/injection, schedule: Q01DX009 (ip), vehicle: saline with Tween-80 103 % of control | endpoint: median survival time, dose: 100.0 mg/kg/injection, schedule: Q01DX009 (ip), vehicle: saline with Tween-80 103 % of control | endpoint: median survival time, dose: 200.0 mg/kg/injection, schedule: Q01DX009 (ip), vehicle: saline with Tween-80 101 % of control

S=C(Nc1ccccc1)N1CCC(CCCC2CCN(C(=S)Nc3ccccc3)CC2)CC1
inactive: [3] 91 % of control | [5] 88 % of control

O=C(O)/C(=C\c1ccc(Br)cc1)c1ccc(C(F)(F)F)cc1[N+](=O)[O-]
inactive: endpoint: mean survival time, dose: 75.0 mg/kg/injection, schedule: Q04DX003 (ip), vehicle: saline 89 % of control | endpoint: mean survival time, dose: 150.0 mg/kg/injection, schedule: Q04DX003 (ip), vehicle: saline 101 % of control | endpoint: mean survival time, dose: 300.0 mg/kg/injection, schedule: Q04DX003 (ip), vehicle: saline 100 % of control

c1ccc2c(c1)Sc1cnccc1N2CC1CO1 (stereo unspecified)
inactive: [8] 102 % of control | [9] 102 % of control | [10] 104 % of control

CSC(SC)=C(C#N)C#N
inactive: endpoint: mean survival time, dose: 12.5 mg/kg/injection, schedule: Q04DX002 (ip), vehicle: saline 102 % of control | endpoint: mean survival time, dose: 25.0 mg/kg/injection, schedule: Q04DX002 (ip), vehicle: saline 94 % of control | endpoint: mean survival time, dose: 50.0 mg/kg/injection, schedule: Q04DX002 (ip), vehicle: saline 92 % of control

N#CC(C#N)=C1Cc2ccccc2C1
inactive: endpoint: mean survival time, dose: 12.5 mg/kg/injection, schedule: Q04DX003 (ip), vehicle: saline with Tween-80 93 % of control | endpoint: mean survival time, dose: 25.0 mg/kg/injection, schedule: Q04DX003 (ip), vehicle: saline with Tween-80 100 % of control | [11] 94 % of control

CCOC(=O)C(=O)c1c[nH]c2ccccc12
inactive: [2] 89 % of control | [4] 95 % of control | endpoint: mean survival time, dose: 400.0 mg/kg/injection, schedule: Q01DX009 (ip), vehicle: saline sonified 94 % of control

Cc1c[nH]c(=O)n(CC(=O)C2CCC3C4CCC5=CC(=O)CCC5(C)C4CCC23C)c1=O (stereo unspecified)
inactive: endpoint: mean survival time, dose: 12.5 mg/kg/injection, schedule: Q04DX003 (ip), vehicle: Klucel (hydroxypropylcellulose) (HPC) 95 % of control | endpoint: mean survival time, dose: 25.0 mg/kg/injection, schedule: Q04DX003 (ip), vehicle: Klucel (hydroxypropylcellulose) (HPC) 95 % of control | endpoint: mean survival time, dose: 50.0 mg/kg/injection, schedule: Q04DX003 (ip), vehicle: Klucel (hydroxypropylcellulose) (HPC) 97 % of control | endpoint: mean survival time, dose: 100.0 mg/kg/injection, schedule: Q04DX003 (ip), vehicle: Klucel (hydroxypropylcellulose) (HPC) 98 % of control | endpoint: mean survival time, dose: 200.0 mg/kg/injection, schedule: Q04DX003 (ip), vehicle: Klucel (hydroxypropylcellulose) (HPC) 98 % of control

Cc1ccccc1OCc1ccccc1
inactive: [11] 104 % of control | [3] 98 % of control and 101 % of control | [5] 102 % of control and 104 % of control | [6] 94 % of control

Cc1c(C)c(C(=O)O)c(C)c(C)c1C(=O)O
inactive: endpoint: mean survival time, dose: 100.0 mg/kg/injection, schedule: Q04DX003 (ip), vehicle: saline 102 % of control | endpoint: mean survival time, dose: 200.0 mg/kg/injection, schedule: Q04DX003 (ip), vehicle: saline 100 % of control | endpoint: mean survival time, dose: 400.0 mg/kg/injection, schedule: Q04DX003 (ip), vehicle: saline 96 % of control

COC1=C(NC(C)=O)C(=O)c2nc(-c3nc(C(=O)O)c(C)c(-c4ccc(OC)c(OC)c4O)c3N)ccc2C1=O
inactive: endpoint: median survival time, dose: 6.25 mg/kg/injection, schedule: Q01DX009 (ip), vehicle: Klucel (hydroxypropylcellulose) (HPC) 106 % of control | endpoint: median survival time, dose: 12.5 mg/kg/injection, schedule: Q01DX009 (ip), vehicle: Klucel (hydroxypropylcellulose) (HPC) 108 % of control | endpoint: median survival time, dose: 25.0 mg/kg/injection, schedule: Q01DX009 (ip), vehicle: Klucel (hydroxypropylcellulose) (HPC) 104 % of control | endpoint: median survival time, dose: 50.0 mg/kg/injection, schedule: Q01DX009 (ip), vehicle: Klucel (hydroxypropylcellulose) (HPC) 107 % of control | endpoint: median survival time, dose: 100.0 mg/kg/injection, schedule: Q01DX009 (ip), vehicle: Klucel (hydroxypropylcellulose) (HPC) 109 % of control | endpoint: median survival time, dose: 200.0 mg/kg/injection, schedule: Q01DX009 (ip), vehicle: Klucel (hydroxypropylcellulose) (HPC) 109 % of control

O=C(CCl)c1cnc2ccccc2n1
inactive: endpoint: mean survival time, dose: 5.0 mg/kg/injection, schedule: Q01DX001 (ip), vehicle: saline 91 % of control | endpoint: mean survival time, dose: 10.0 mg/kg/injection, schedule: Q01DX001 (ip), vehicle: saline 94 % of control | endpoint: mean survival time, dose: 20.0 mg/kg/injection, schedule: Q01DX001 (ip), vehicle: saline 95 % of control

CC(CO)CCC1OC2CC3C4CCC5CC(O)CCC5(C)C4CCC3(C)C2C1C (stereo unspecified)
inactive: [7] 95 % of control | endpoint: mean survival time, dose: 200.0 mg/kg/injection, schedule: Q01DX001 (ip), vehicle: saline with Tween-80 94 % of control

O=C(O)CCSCCC(=O)O
inactive: endpoint: mean survival time, dose: 100.0 mg/kg/injection, schedule: Q01DX001 (ip), vehicle: saline 100 % of control | endpoint: mean survival time, dose: 200.0 mg/kg/injection, schedule: Q01DX001 (ip), vehicle: saline 105 % of control | endpoint: mean survival time, dose: 400.0 mg/kg/injection, schedule: Q01DX001 (ip), vehicle: saline 101 % of control
